Assay results taken from US7888349B2, “Piperazine, [1,4]Diazepane, [1,4]Diazocane, and [1,5]Diazocane fused imidazo ring compounds” (3M Innovative Properties Company, priority 2003, dated 2011).
Counter-ions that a name gives are not always drawn.

| SMILES | melting point |
| --- | --- |
| CS(=O)(=O)N1CCn2c(nc3c(N)nc4ccccc4c32)C1 (as salt: trifluoroacetate) [Example 5, 9-(Methylsulfonyl)-8,9,10,11-tetrahydropyrazino[1′,2′:1,2]imidazo[4,5-c]quinolin-6-amine trifluoroacetate] | 242 to 243 °C |
| CS(=O)(=O)N1CCCn2c(nc3c(N)nc4ccccc4c32)C1 (as salt: trifluoroacetate) [Example 7, 9-(Methylsulfonyl)-9,10,11,12-tetrahydro-8H-[1,4]diazepino[1′,2′:1,2]imidazo[4,5-c]quinolin-6-amine trifluoroacetate] | 250 to 250.9 °C |
| CC(C)(C)[Si](C)(C)OC1CN(S(C)(=O)=O)Cc2nc3c(N)nc4ccccc4c3n2C1 (centres unmarked) [Example 1, 11-{[tert-Butyl(dimethyl)silyl]oxy}-9-(methylsulfonyl)-9,10,11,12-tetrahydro-8H-[1,4]diazepino[1′,2′:1,2]imidazo[4,5-c]quinolin-6-amine] | 256 to 258 °C |
| CS(=O)(=O)N1Cc2nc3c(N)nc4ccccc4c3n2CC(O)C1 (centres unmarked) [Example 2, 6-Amino-9-(methylsulfonyl)-9,10,11,12-tetrahydro-8H-[1,4]diazepino[1′,2′:1,2]imidazo[4,5-c]quinolin-11-ol] | 282 to 283 °C |
| CC1(C)Cn2c(nc3c(N)nc4ccccc4c32)CN1S(C)(=O)=O [Example 3, 10,10-Dimethyl-9-(methylsulfonyl)-8,9,10,11-tetrahydropyrazino[1′,2′:1,2]imidazo[4,5-c]quinolin-6-amine] | 227 to 228 °C |
| CC(C)(C)OC(=O)N1CCn2c(nc3c(N)nc4ccccc4c32)C1 [Example 4, tert-Butyl 6-amino-10,11-dihydropyrazino[1′,2′:1,2]imidazo[4,5-c]quinoline-9(8H)-carboxylate] | 207 °C |
| CC(C)(C)OC(=O)N1CCCn2c(nc3c(N)nc4ccccc4c32)C1 [Example 6, tert-Butyl 6-amino-11,12-dihydro-8H-[1,4]diazepino[1′,2′:1,2]imidazo[4,5-c]quinoline-9(10H)-carboxylate] | 213 °C |
| CS(=O)(=O)N1CCCn2c(nc3c(N)nc4ccccc4c32)C1 [Example 8, 9-(Methylsulfonyl)-9,10,11,12-tetrahydro-8H-[1,4]diazepino[1′,2′:1,2]imidazo[4,5-c]quinolin-6-amine] | 280 °C |
| CS(=O)(=O)N1CCCn2c(nc3c(N)nc4c(c32)CCCC4)C1 [Example 363, 9-(Methylsulfonyl)-2,3,4,8,9,10,11,12-octahydro-1H-[1,4]diazepino[1′,2′:1,2]imidazo[4,5c]quinolin-6-amine] | 270 to 272 °C |
| CS(=O)(=O)N1CCCn2c(nc3c(N)nc4cc(Br)ccc4c32)C1 [Example 365, 3-Bromo-9-(methylsulfonyl)-9,10,11,12-tetrahydro-8H-[1,4]diazepino[1′,2′:1,2]imidazo[4,5-c]quinolin-6-amine] | 303 °C |
| CS(=O)(=O)N1CCCn2c(nc3c(N)nc4cc(-c5cccnc5)ccc4c32)C1 [Example 366, 9-(Methylsulfonyl)-3-pyridin-3-yl-9,10,11,12-tetrahydro-8H-[1,4]diazepino[1′,2′:1,2]imidazo[4,5-c]quinolin-6-amine] | 302 °C |
| CS(=O)(=O)N1CCn2c(nc3c(N)nc4cc(Br)ccc4c32)C1 [Example 367, 3-Bromo-9-(methylsulfonyl)-8,9,10,11-tetrahydropyrazino[1′,2′:1,2]imidazo[4,5-c]quinolin-6-amine] | 315 to 317 °C |
| CS(=O)(=O)N1CCn2c(nc3c(N)nc4cc(OCc5ccccc5)ccc4c32)C1 [Example 368, 3-(Benzyloxy)-9-(methylsulfonyl)-8,9,10,11-tetrahydropyrazino[1′,2′:1,2]imidazo[4,5-c]quinolin-6-amine] | 266 to 268 °C |
| CS(=O)(=O)N1CCCn2c(nc3c(N)nc4cc(OCc5ccccc5)ccc4c32)C1 [Example 369, 3-(Benzyloxy)-9-(methylsulfonyl)-9,10,11,12-tetrahydro-8H-[1,4]diazepino[1′,2′:1,2]imidazo[4,5-c]quinolin-6-amine] | 235 to 236 °C |
